Measurements published in patent US20250281617A1, “Drug Delivery System” (The University of Birmingham, priority 2019, published 2025).
Where two headings read alike, the source gives them in different places.

What was measured:
[1] = Delivery of lutein across chicken egg epithelial membrane with polyamine/amine carrier
Protocol: The membrane was washed in deionized water.
Lutein is a naturally occurring carotenoid that reduces the progression of age-related macular degeneration and cataracts. Lutein has a characteristic absorbance which can be measured using a plate reader, and thus it was not necessary to label the lutein with FAM. The absorbance of the solution which had crossed the membrane was measured and compared to the absorbance of the stock solution.

[2] = chicken, 60 seconds
[3] = Delivery of fluorescent (FAM-tagged) peptide across chicken egg epithelial membrane with polyamine/amine carrier; details: fold versus control without carrier; Example 5
[4] = Delivery of fluorescence-labelled bevacizumab across chicken egg epithelial membrane with polyamine/amine carrier; details: for improvement in the amount of bevacizumab transported across the membrane: versus control without carrier; for improvement in the amount of bevacizumab transported across the membrane / amount of bevacizumab transported across the membrane compared to the control sample: Example 5; for amount of bevacizumab transported across the membrane compared to the control sample: fold versus control without carrier
[5] = chicken, 60 seconds; remark: listed apart in the source
[6] = Delivery of fluorescence-labelled bevacizumab into the posterior segment of ex vivo porcine eyes; type: in vitro ADME; details: various incubation times
Protocol: Further tests on porcine eyes was carried out with fluorescence-labelled bevacizumab. […] The same methodology as described in Example 3 was used, but with various incubation times.

[7] = versus control without carrier, Example 5

## NCCCNCCNCCCN [1,2-Bis(3-aminopropylamino)ethane]
[1]; chicken, 60 seconds
  % peptide transported across membrane: 22.0%
  amount of lutein transported across the membrane (bound stated in text): > 20%
[2]
  % peptide transported across membrane: 14.1%
[3]
  amount of peptide transported across the membrane compared with the control test: twice as much peptide

## NCCCN [1,3-Diaminopropane]
[1]; Table 2, lutein with the named polyamine or amine moiety, methodology of Example 1
  % peptide transported across membrane: 0.2%
[1]; [7]
  improvement in the amount of lutein transported across the membrane: did not significantly improve
[4]; Table 3, fluorescence-labelled bevacizumab with the named polyamine or amine moiety, methodology of Example 1
  % peptide transported across membrane: 4.4%
[4]
  improvement in the amount of bevacizumab transported across the membrane: did not significantly improve

## CNCCCN [3-(Methylamino)propylamine]
[1]; chicken, 60 seconds
  % peptide transported across membrane: 6.5%
  amount of lutein transported across the membrane (bound stated in text): > 5%
[2]
  % peptide transported across membrane: 3.4%

## NCCCNCCCN [Bis(3-aminopropyl)amine]
[3]
  amount of peptide transported across the membrane compared with the control test: five times more peptide
[4]
  amount of bevacizumab transported across the membrane compared to the control sample: more than twice as much

## NCCCCCN [Cadaverine]
[4]
  amount of bevacizumab transported across the membrane compared to the control sample: more than twice as much

## CCCCNCCCC [Dibutylamine]
[1]; chicken, 60 seconds
  % peptide transported across membrane: 10.7%
  amount of lutein transported across the membrane (bound stated in text): > 5%
[2]
  % peptide transported across membrane: 4.0%

## NCCN [Ethylenediamine]
[1]; chicken, 60 seconds
  % peptide transported across membrane: 2.3%
[1]; [7]
  improvement in the amount of lutein transported across the membrane: did not significantly improve
[2]
  % peptide transported across membrane: 5.7%
[4]
  improvement in the amount of bevacizumab transported across the membrane: did not significantly improve

## N=C(N)N [Guanidine]
[1]; chicken, 60 seconds
  % peptide transported across membrane: 8.0%
  amount of lutein transported across the membrane (bound stated in text): > 5%
[5]
  % peptide transported across membrane: 7.9%
[2]
  % peptide transported across membrane: 4.0%

## NCCC(=O)N[C@@H](Cc1cnc[nH]1)C(=O)O [L-Carnosine]
[1]
  % peptide transported across membrane: 7.4%
  amount of lutein transported across the membrane (bound stated in text): > 5%

## CC(C)N(CCN)C(C)C [N,N-Diisopropylethylenediamine]
[1]; chicken, 60 seconds
  % peptide transported across membrane: 6.7%
  amount of lutein transported across the membrane (bound stated in text): > 5%
[5]
  % peptide transported across membrane: 3.3%
[2]
  % peptide transported across membrane: 9.1%

## NCCCNCCCNCCCN [N,N′-Bis(3-aminopropyl)-1,3-propanediamine]
[1]; chicken, 60 seconds
  % peptide transported across membrane: 19.5%
  amount of lutein transported across the membrane (bound stated in text): > 5%
[2]
  % peptide transported across membrane: 32.4%
[3]
  amount of peptide transported across the membrane compared with the control test: five times more peptide

## CNCCN [N-Methylethylenediamine]
[1]
  % peptide transported across membrane: 20.9%
  amount of lutein transported across the membrane (bound stated in text): > 20%

## NCCCCN [Putrescine]
[1]; chicken, 60 seconds
  % peptide transported across membrane: 12.7%
  amount of lutein transported across the membrane (bound stated in text): > 5%
[2]
  % peptide transported across membrane: 6.9%

## NCCCCNCCCN [Spermidine]
[1]; chicken, 60 seconds
  % peptide transported across membrane: 25.7%
  amount of lutein transported across the membrane (bound stated in text): > 20%
[6]
  effect of longer incubation time on amount of bevacizumab transported into the eye tissue: increased with increasing incubation time
[2]
  % peptide transported across membrane: 22.3%
[3]
  amount of peptide transported across the membrane compared with the control test: five times more peptide

## NCCCNCCCCNCCCN [Spermine]
[1]; chicken, 60 seconds
  % peptide transported across membrane: 27.8%
  amount of lutein transported across the membrane (bound stated in text): > 20%
[6]
  effect of longer incubation time on amount of bevacizumab transported into the eye tissue: did not result in higher delivery
[2]
  % peptide transported across membrane: 28.1%
[3]
  amount of peptide transported across the membrane compared with the control test: twice as much peptide

## NCCNCCNCCNCCN [Tetraethylenepentamine]
[1]; chicken, 60 seconds
  % peptide transported across membrane: 11.5%
  amount of lutein transported across the membrane (bound stated in text): > 5%
[5]
  % peptide transported across membrane: 28.8%
[2]
  % peptide transported across membrane: 19.7%

## CCN(CC)CC [Triethylamine]
[1]
  improvement in the amount of lutein transported across the membrane: did not significantly improve
[1]; chicken, 60 seconds
  % peptide transported across membrane: 2.2%
[2]
  % peptide transported across membrane: 7.1%

## NCCN(CCN)CCN [Tris(2-aminoethyl)amine]
[1]; chicken, 60 seconds
  % peptide transported across membrane: 4.7%
[5]
  % peptide transported across membrane: 41.0%
[2]
  % peptide transported across membrane: 11.4%

## NCCc1ccc(O)cc1 [Tyramine]
[1]; chicken, 60 seconds
  % peptide transported across membrane: 14.1%
  amount of lutein transported across the membrane (bound stated in text): > 5%
[5]
  % peptide transported across membrane: 11.3%
[2]
  % peptide transported across membrane: 5.8%

## NC(N)=O [Urea]
[1]
  % peptide transported across membrane: 1.7%

## CC1=C[C@H](O)CC(C)(C)[C@H]1/C=C/C(C)=C/C=C/C(C)=C/C=C/C=C(C)/C=C/C=C(C)/C=C/C1=C(C)C[C@@H](O)CC1(C)C [lutein, Lutein, reference compound]
[1]; chicken, 60 seconds
  lutein crossed the membrane: about 6%
  lutein transported across the membrane: 0.5%
